Measured values as given in PubChem BioAssay (NCI).
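The concentration for 50% growth inhibition is given as GI50. TGI marks complete inhibition of growth.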

Legend:
Assay in all cases: growth of human tumour cells (NCI), 384-well format
786-0 renal = system: 786-0 renal
A498 renal = system: A498 renal
ACHN renal = system: ACHN renal
BT-549 breast = system: BT-549 breast
CAKI-1 renal = system: CAKI-1 renal
CCRF-CEM leukemia = system: CCRF-CEM leukemia
COLO 205 colon = system: COLO 205 colon
DU-145 prostate = system: DU-145 prostate
EKVX NSCLC = system: EKVX NSCLC
HCC-2998 colon = system: HCC-2998 colon
HCT-15 colon = system: HCT-15 colon
HL-60(TB) leukemia = system: HL-60(TB) leukemia
HOP-62 NSCLC = system: HOP-62 NSCLC
HOP-92 NSCLC = system: HOP-92 NSCLC
HT29 colon = system: HT29 colon
IGROV1 ovarian = system: IGROV1 ovarian
K-562 leukemia = system: K-562 leukemia
M14 melanoma = system: M14 melanoma
MDA-MB-231 breast = system: MDA-MB-231 breast
MDA-MB-435 melanoma = system: MDA-MB-435 melanoma
MDA-MB-468 breast = system: MDA-MB-468 breast
MOLT-4 leukemia = system: MOLT-4 leukemia
NCI-H23 lung = system: NCI-H23 lung
NCI-H322M lung = system: NCI-H322M lung
NCI-H460 NSCLC = system: NCI-H460 NSCLC
NCI-H522 lung = system: NCI-H522 lung
OVCAR-3 ovarian = system: OVCAR-3 ovarian
OVCAR-4 ovarian = system: OVCAR-4 ovarian
OVCAR-5 ovarian = system: OVCAR-5 ovarian
OVCAR-8 ovarian = system: OVCAR-8 ovarian
PC-3 prostate = system: PC-3 prostate
RXF 393 renal = system: RXF 393 renal
SF-268 CNS = system: SF-268 CNS
SF-295 CNS = system: SF-295 CNS
SF-539 CNS = system: SF-539 CNS
SK-MEL-2 melanoma = system: SK-MEL-2 melanoma
SK-MEL-28 melanoma = system: SK-MEL-28 melanoma
SN12C renal = system: SN12C renal
SNB-19 CNS = system: SNB-19 CNS
SNB-75 CNS = system: SNB-75 CNS
SR leukemia = system: SR leukemia
SW-620 colon = system: SW-620 colon
T-47D breast = system: T-47D breast
TK-10 renal = system: TK-10 renal
U251 glioblastoma = system: U251 glioblastoma
UACC-257 melanoma = system: UACC-257 melanoma
UACC-62 melanoma = system: UACC-62 melanoma

## Cc1ccc2c(Nc3cccc(Cl)c3F)ncc(NC(=O)c3csc4c(N)ncnc34)c2c1
786-0 renal
  GI50: 22.2 µM
  TGI: > 100 µM
A498 renal
  GI50: 3.07 µM
  TGI: 43 µM
ACHN renal
  GI50: 12.7 µM
  TGI: > 100 µM
BT-549 breast
  GI50: 22.8 µM
  TGI: > 100 µM
CAKI-1 renal
  GI50: 0.577 µM
  TGI: > 100 µM
CCRF-CEM leukemia
  GI50: 15 µM
  TGI: 34.5 µM
COLO 205 colon
  GI50: 0.0242 µM
  TGI: 19.3 µM
DU-145 prostate
  GI50: 22 µM
  TGI: > 100 µM
EKVX NSCLC
  GI50: 10.8 µM
  TGI: > 100 µM
HCC-2998 colon
  GI50: 0.115 µM
  TGI: 0.537 µM
HCT-15 colon
  GI50: 26.3 µM
  TGI: > 100 µM
HL-60(TB) leukemia
  GI50: 0.0159 µM
  TGI: 12.8 µM
HOP-62 NSCLC
  GI50: 11.5 µM
  TGI: > 100 µM
HOP-92 NSCLC
  GI50: 0.542 µM
  TGI: 7.97 µM
HT29 colon
  GI50: 0.127 µM
  TGI: > 100 µM
IGROV1 ovarian
  GI50: 1.6 µM
  TGI: 97.9 µM
K-562 leukemia
  GI50: 0.592 µM
  TGI: > 100 µM
M14 melanoma
  GI50: 0.0224 µM
  TGI: 0.186 µM
MDA-MB-231 breast
  GI50: 0.0195 µM
  TGI: 16.3 µM
MDA-MB-435 melanoma
  GI50: 0.0481 µM
  TGI: 55 µM
MDA-MB-468 breast
  GI50: 18.3 µM
  TGI: 52.4 µM
MOLT-4 leukemia
  GI50: 21.8 µM
  TGI: > 100 µM
NCI-H23 lung
  GI50: 0.0761 µM
  TGI: 4.46 µM
NCI-H322M lung
  GI50: 17.4 µM
  TGI: > 100 µM
NCI-H460 NSCLC
  GI50: 13 µM
  TGI: > 100 µM
NCI-H522 lung
  GI50: 13.1 µM
  TGI: 59 µM
OVCAR-3 ovarian
  GI50: 22.2 µM
  TGI: 84.7 µM
OVCAR-4 ovarian
  GI50: 44.6 µM
  TGI: > 100 µM
OVCAR-5 ovarian
  GI50: 0.178 µM
  TGI: > 100 µM
OVCAR-8 ovarian
  GI50: 13.2 µM
  TGI: 43.1 µM
PC-3 prostate
  GI50: 57.3 µM
  TGI: > 100 µM
RXF 393 renal
  GI50: 0.968 µM
  TGI: 95.7 µM
SF-268 CNS
  GI50: 21.9 µM
  TGI: 73.7 µM
SF-295 CNS
  GI50: 93.7 µM
  TGI: > 100 µM
SF-539 CNS
  GI50: 29.1 µM
  TGI: > 100 µM
SK-MEL-2 melanoma
  GI50: 0.0346 µM
  TGI: 0.148 µM
SK-MEL-28 melanoma
  GI50: 0.0179 µM
  TGI: 0.0923 µM
SN12C renal
  GI50: 8.16 µM
  TGI: > 100 µM
SNB-19 CNS
  GI50: 55 µM
  TGI: > 100 µM
SNB-75 CNS
  GI50: 33.6 µM
  TGI: > 100 µM
SR leukemia
  GI50: 15.1 µM
  TGI: 82.8 µM
SW-620 colon
  GI50: 0.721 µM
  TGI: > 100 µM
T-47D breast
  GI50: 19.5 µM
  TGI: > 100 µM
TK-10 renal
  GI50: 8.61 µM
  TGI: 75.8 µM
U251 glioblastoma
  GI50: 22.3 µM
  TGI: > 100 µM
UACC-257 melanoma
  GI50: 0.0668 µM
  TGI: 0.569 µM
UACC-62 melanoma
  GI50: 0.0251 µM
  TGI: 0.209 µM
